Data as given in ChEMBL document CHEMBL1201862, “PubChem BioAssay data set” (2004).
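How tested: cells in 96-well plates exposed to compound for 48 hours at five concentrations. At the GI50, growth is halved.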 Activity calls are given as the source filed them. No stated cut-off is given here; in the data, active = GI50 up to about 1.1 µM and inactive = higher.

How the values were obtained:
Experiment in all cases: inhibition of tumour cell growth, NCI panel, 48 h
UACC-257 = system: UACC-257
SK-MEL-5 = system: SK-MEL-5
OVCAR-8 = system: OVCAR-8
M19-MEL = system: M19-MEL
SR = system: SR
KM-20L2 = system: KM-20L2
NCI-H226 = system: NCI-H226
KM12 = system: KM12
M14 = system: M14
UO-31 = system: UO-31
IGROV-1 = system: IGROV-1
A498 = system: A498
SNB-75 = system: SNB-75
LOX IMVI = system: LOX IMVI
786-0 = system: 786-0
HOP-18 = system: HOP-18
NCI-H460 = system: NCI-H460
CAKI-1 = system: CAKI-1
MOLT-4 = system: MOLT-4
SNB-19 = system: SNB-19
TK-10 = system: TK-10
HOP-92 = system: HOP-92
HCT-116 = system: HCT-116
SF-539 = system: SF-539
RXF 631 = system: RXF 631
DLD-1 = system: DLD-1
OVCAR-3 = system: OVCAR-3
Malme-3M = system: Malme-3M
U-251 = system: U-251
SK-MEL-28 = system: SK-MEL-28
NCI-H23 = system: NCI-H23
SF-295 = system: SF-295
DMS-273 = system: DMS-273
RPMI-8226 = system: RPMI-8226
SN12C = system: SN12C
ACHN = system: ACHN
UACC-62 = system: UACC-62
COLO 205 = system: COLO 205
CCRF-CEM = system: CCRF-CEM
HT-29 = system: HT-29
LXFL 529 = system: LXFL 529
HOP-62 = system: HOP-62
SF-268 = system: SF-268
SK-OV-3 = system: SK-OV-3
SNB-78 = system: SNB-78
HL-60 = system: HL-60
XF498 = system: XF498
K562 = system: K562
A549 = system: A549
SW-620 = system: SW-620
NCI-H522 = system: NCI-H522
OVCAR-4 = system: OVCAR-4
RXF 393 = system: RXF 393
HCC 2998 = system: HCC 2998
HCT-15 = system: HCT-15
EKVX = system: EKVX
OVCAR-5 = system: OVCAR-5
SK-MEL-2 = system: SK-MEL-2

With Cc1cn(C2C=CC(=O)C(C)O2)c(=O)[nH]c1=O (stereo not given) the GI50 (UACC-257) was 14 µM (inactive), the GI50 (SK-MEL-5) was 14.7 µM (inactive) and the GI50 (OVCAR-8) was 18.6 µM (inactive). For the same compound, the GI50 (M19-MEL) was 15.8 µM (inactive), the GI50 (SR) was 18.3 µM (inactive) and the GI50 (KM-20L2) was 16.3 µM (inactive). For the same compound, the GI50 (NCI-H226) was 19.5 µM (inactive), the GI50 (KM12) was 16.1 µM (inactive) and the GI50 (M14) was 15.3 µM (inactive). The GI50 (UO-31) was 14.5 µM (inactive), the GI50 (IGROV-1) was 18 µM (inactive) and the GI50 (A498) was 38.1 µM (inactive). For the same compound, the GI50 (SNB-75) was 15.5 µM (inactive), the GI50 (LOX IMVI) was 13.2 µM (inactive) and the GI50 (786-0) was 18 µM (inactive). For the same compound, the GI50 (HOP-18) was 15 µM (inactive), the GI50 (NCI-H460) was 17.9 µM (inactive) and the GI50 (CAKI-1) was 16.7 µM (inactive). The GI50 (MOLT-4) was 18 µM (inactive), the GI50 (SNB-19) was 21 µM (inactive) and the GI50 (TK-10) was 15.1 µM (inactive). For the same compound, the GI50 (HOP-92) was 15.9 µM (inactive), the GI50 (HCT-116) was 12.2 µM (inactive) and the GI50 (SF-539) was 18.7 µM (inactive). For the same compound, the GI50 (RXF 631) was 15.2 µM (inactive), the GI50 (DLD-1) was 14.1 µM (inactive) and the GI50 (OVCAR-3) was 17.4 µM (inactive). For the same compound, the GI50 (Malme-3M) was 13.2 µM (inactive), the GI50 (U-251) was 15.3 µM (inactive) and the GI50 (SK-MEL-28) was 14.9 µM (inactive). For the same compound, the GI50 (NCI-H23) was 18.1 µM (inactive), the GI50 (SF-295) was 17.5 µM (inactive) and the GI50 (DMS-273) was 18.1 µM (inactive). The GI50 (RPMI-8226) was 20.5 µM (inactive), the GI50 (SN12C) was 15.9 µM (inactive) and the GI50 (ACHN) was 17.5 µM (inactive). For the same compound, the GI50 (UACC-62) was 15.7 µM (inactive), the GI50 (COLO 205) was 17.5 µM (inactive) and the GI50 (CCRF-CEM) was 6.07 µM (inactive). The GI50 (HT-29) was 17.1 µM (inactive), the GI50 (LXFL 529) was 14.8 µM (inactive) and the GI50 (HOP-62) was 20.6 µM (inactive). For the same compound, the GI50 (SF-268) was 18.2 µM (inactive), the GI50 (SK-OV-3) was 33.8 µM (inactive) and the GI50 (SNB-78) was 16.7 µM (inactive). For the same compound, the GI50 (HL-60) was 14.7 µM (inactive), the GI50 (XF498) was 13.5 µM (inactive) and the GI50 (K562) was 10.6 µM (inactive). The GI50 (A549) was 39 µM (inactive), the GI50 (SW-620) was 15.1 µM (inactive) and the GI50 (NCI-H522) was 16.6 µM (inactive).

In the case of COc1ccc(S(=O)(=O)Nc2ccccc2C(=O)O)cc1, the GI50 (OVCAR-4) was > 100 µM (inactive), the GI50 (UACC-257) was > 100 µM (inactive) and the GI50 (SK-MEL-5) was > 100 µM (inactive). The GI50 (OVCAR-8) was > 100 µM (inactive), the GI50 (M19-MEL) was > 100 µM (inactive) and the GI50 (RXF 393) was > 100 µM (inactive). The GI50 (KM-20L2) was > 100 µM (inactive), the GI50 (NCI-H226) was > 100 µM (inactive) and the GI50 (HCC 2998) was > 100 µM (inactive). For the same compound, the GI50 (KM12) was > 100 µM (inactive), the GI50 (M14) was > 100 µM (inactive) and the GI50 (UO-31) was > 100 µM (inactive). The GI50 (IGROV-1) was > 100 µM (inactive), the GI50 (A498) was > 100 µM (inactive) and the GI50 (SNB-75) was 68.1 µM (inactive). The GI50 (LOX IMVI) was > 100 µM (inactive), the GI50 (786-0) was > 100 µM (inactive) and the GI50 (HOP-18) was > 100 µM (inactive). For the same compound, the GI50 (NCI-H460) was > 100 µM (inactive), the GI50 (CAKI-1) was > 100 µM (inactive) and the GI50 (MOLT-4) was > 100 µM (inactive). The GI50 (HCT-15) was greater than 100 µM, the GI50 (SNB-19) was > 100 µM (inactive) and the GI50 (TK-10) was > 100 µM (inactive). The GI50 (HOP-92) was 55.8 µM (inactive), the GI50 (SF-539) was > 100 µM (inactive) and the GI50 (RXF 631) was > 100 µM (inactive). For the same compound, the GI50 (DLD-1) was > 100 µM (inactive), the GI50 (OVCAR-3) was > 100 µM (inactive) and the GI50 (Malme-3M) was > 100 µM (inactive). The GI50 (EKVX) was > 100 µM (inactive), the GI50 (U-251) was > 100 µM (inactive) and the GI50 (SK-MEL-28) was > 100 µM (inactive). For the same compound, the GI50 (NCI-H23) was > 100 µM (inactive), the GI50 (SF-295) was > 100 µM (inactive) and the GI50 (DMS-273) was > 100 µM (inactive). For the same compound, the GI50 (RPMI-8226) was > 100 µM (inactive), the GI50 (SN12C) was > 100 µM (inactive) and the GI50 (ACHN) was > 100 µM (inactive). For the same compound, the GI50 (UACC-62) was > 100 µM (inactive), the GI50 (COLO 205) was > 100 µM (inactive) and the GI50 (CCRF-CEM) was > 100 µM (inactive). For the same compound, the GI50 (HT-29) was > 100 µM (inactive), the GI50 (LXFL 529) was > 100 µM (inactive) and the GI50 (SF-268) was > 100 µM (inactive). For the same compound, the GI50 (SK-OV-3) was > 100 µM (inactive), the GI50 (OVCAR-5) was > 100 µM (inactive) and the GI50 (HL-60) was > 100 µM (inactive). The GI50 (XF498) was > 100 µM (inactive), the GI50 (K562) was > 100 µM (inactive) and the GI50 (A549) was > 100 µM (inactive). For the same compound, the GI50 (SW-620) was > 100 µM (inactive), the GI50 (SK-MEL-2) was > 100 µM (inactive) and the GI50 (NCI-H522) was > 100 µM (inactive).
